In article PMC6442233, “SAR and molecular mechanism studies of monoamine oxidase inhibition by selected chalcone analogs” (Journal of Enzyme Inhibition and Medicinal Chemistry, 2019):

How the values were obtained:
human MAO-B = target: T1, human MAO-B (Homo sapiens, UniProt P27338); test: IC50 determination for MAO-B inhibition (kynuramine, fluorescence); format: biochemical; settings: for Selectivity index: SI = IC50(MAO-A)/IC50(MAO-B); for IC50: recombinant hMAO-B, kynuramine 50 μM, mean ± SD (triplicate)
T1 construct: purchased Sigma-Aldrich
T1 sequence (P27338 1-520): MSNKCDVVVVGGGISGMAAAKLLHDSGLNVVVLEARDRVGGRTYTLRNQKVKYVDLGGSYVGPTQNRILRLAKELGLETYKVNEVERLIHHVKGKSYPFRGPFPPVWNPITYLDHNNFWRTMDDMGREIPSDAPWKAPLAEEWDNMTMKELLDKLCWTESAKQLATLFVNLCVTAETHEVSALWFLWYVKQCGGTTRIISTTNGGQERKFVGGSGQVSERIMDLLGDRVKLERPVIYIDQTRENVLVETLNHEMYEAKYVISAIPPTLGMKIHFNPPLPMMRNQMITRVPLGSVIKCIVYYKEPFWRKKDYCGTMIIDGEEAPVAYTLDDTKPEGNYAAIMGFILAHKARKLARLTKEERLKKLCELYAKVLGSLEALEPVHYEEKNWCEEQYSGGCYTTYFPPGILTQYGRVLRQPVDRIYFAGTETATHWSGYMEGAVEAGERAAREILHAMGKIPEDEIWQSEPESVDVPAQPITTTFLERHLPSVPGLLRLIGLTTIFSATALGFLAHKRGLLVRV
Experimental: (§1) IC50 values for the inhibition of MAO were determined by using the recombinant human MAO-A and MAO-B enzymes (Sigma-Aldrich). Enzyme reactions were performed at a final volume of 200 µL in white 96-well microplates (Eppendorf), with the reaction solvent consisting of potassium phosphate buffer (100 mM, pH 7.4, adjusted to isotonicity with KCl). The reactions contained the nonselective MAO substrate, kynuramine (50 μM), and the test inhibitors at 0.003–100 µM. The test compounds were initially dissolved in DMSO (100%), and after addition to the reactions yielded a concentration of 4% DMSO. Control reactions were included, which contained substrate and 4% DMSO but no test inhibitor. The MAO reactions were started by adding MAO-A (0.0075 mg protein/mL) or MAO-B (0.015 mg protein/mL), and were subsequently incubated for a period of 20 min (37 °C) in a convection oven. A volume of 80 µL 2 N sodium hydroxide was added to the reactions, and the fluorescence intensity of 4-hydroxyquinoline (the end-product of the MAO-catalyzed metabolism of kynuramine) in the reactions was measured at λex 310 and λem 400 nm. To quantify 4-hydroxyquinoline, a calibration curve (linear) ranging from 0.047 to 1.56 μM, was employed. […] These measurements were carried out in triplicate and the IC50 values are presented as the mean ± standard deviation (SD)[18].
(§2) The formation of the dihydropyridinium species (MMDP^+) as a MAO-catalyzed oxidation product of MMTP was monitored at 420 nm. […] Based on this, the IC50 values were determined using kynuramine as a nonselective substrate. The rate of oxidation of kynuramine by MAO was monitored by measuring the fluorescence of the oxidation product, 4-hydroxyquinoline (λex= 310 nm; λem= 400 nm).

human MAO-A = target: T2, human MAO-A (Homo sapiens, UniProt P21397); test: IC50 determination for MAO-A inhibition (kynuramine, fluorescence); format: biochemical; settings: recombinant hMAO-A, kynuramine 50 μM, mean ± SD (triplicate)
T2 construct: purchased Sigma-Aldrich
T2 sequence (P21397 1-527): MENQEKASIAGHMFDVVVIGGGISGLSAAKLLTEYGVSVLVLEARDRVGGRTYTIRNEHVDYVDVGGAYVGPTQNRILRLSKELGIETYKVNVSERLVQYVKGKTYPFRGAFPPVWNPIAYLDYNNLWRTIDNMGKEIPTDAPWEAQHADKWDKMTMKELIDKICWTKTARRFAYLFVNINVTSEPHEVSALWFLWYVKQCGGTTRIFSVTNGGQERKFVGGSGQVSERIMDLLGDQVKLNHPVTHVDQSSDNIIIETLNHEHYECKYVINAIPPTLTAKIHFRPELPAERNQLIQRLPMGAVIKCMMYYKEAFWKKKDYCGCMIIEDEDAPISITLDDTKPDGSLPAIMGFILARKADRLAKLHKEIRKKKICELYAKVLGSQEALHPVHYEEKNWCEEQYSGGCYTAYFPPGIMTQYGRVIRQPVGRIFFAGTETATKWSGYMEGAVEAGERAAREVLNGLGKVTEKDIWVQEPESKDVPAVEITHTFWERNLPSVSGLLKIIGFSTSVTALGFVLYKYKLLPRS
Experimental: as §1, §2

`COc1cccc(/C=C/C(=O)c2ccc(Br)cc2)c1OC` [Compound 21, (E)-1–(4-bromophenyl)-3–(2,3-dimethoxyphenyl)prop-2-en-1-one] showed a Selectivity index (human MAO-B) of 37, an IC50 (human MAO-B) of 0.174 ± 0.015 µM and a melting point of 120 to 124 °C. The IC50 (human MAO-A) was 6.59 ± 0.422 µM.
In the case of `CN(C)c1ccc(/C=C/C(=O)c2ccc(Cl)cc2)cc1` [Compound 4, (E)-1–(4-chlorophenyl)-3–(4-(dimethylamino)phenyl)prop-2-en-1-one], the Selectivity index (human MAO-B) is reported as greater than 310, the IC50 (human MAO-B) is reported as 0.321 ± 0.023 µM and the IC50 (human MAO-A) is reported as greater than 100 µM.
In the case of `COc1cc(OC)c(/C=C/C(=O)c2ccc(F)cc2)c(OC)c1` [Compound 19, (E)-1–(4-fluorophenyl)-3–(2,4,6-trimethoxyphenyl)prop-2-en-1-one], the Selectivity index (human MAO-B) is reported as less than 0.004, the IC50 (human MAO-B) is reported as greater than 100 µM and the IC50 (human MAO-A) is reported as 0.444 ± 0.039 µM.
Molecule `CSc1ccc(C(=O)/C=C/c2cccc(Br)c2)cc1` [Compound 11, (E)-3–(3-bromophenyl)-1–(4-(methylthio)phenyl)prop-2-en-1-one] has a Selectivity index (human MAO-B) of 487, an IC50 (human MAO-B) of 0.198 ± 0.012 µM and a melting point of 139 to 143 °C. The IC50 (human MAO-A) was 96.6 ± 5.21 µM.
Work on `O=C(/C=C/c1cccc2c1OCO2)c1cccc(Br)c1` [Compound 7, (E)-3-(benzo[d][1,3]dioxol-4-yl)-1–(3-bromophenyl)prop-2-en-1-one] yielded a Selectivity index (human MAO-B) greater than 1230, an IC50 (human MAO-B) of 0.081 ± 0.012 µM and a melting point of 107 to 111 °C. For the same molecule, the IC50 (human MAO-A) was greater than 100 µM.
Work on `CN(C)c1ccc(/C=C/C(=O)c2ccc(Br)cc2)cc1` [Compound 3, (E)-1–(4-bromophenyl)-3–(4-(dimethylamino)phenyl)prop-2-en-1-one] yielded a Selectivity index (human MAO-B) greater than 185, an IC50 (human MAO-B) of 0.539 ± 0.058 µM and an IC50 (human MAO-A) greater than 100 µM.
Molecule `O=C(/C=C/c1ccc([N+](=O)[O-])cc1)c1ccc(F)cc1` [Compound 12, (E)-1–(4-fluorophenyl)-3–(4-nitrophenyl)prop-2-en-1-one] has a Selectivity index (human MAO-B) of 172, an IC50 (human MAO-B) of 0.069 ± 0.006 µM and a melting point of 165 to 169 °C. The IC50 (human MAO-A) was 11.9 ± 0.822 µM.
With `CCOc1cccc(/C=C/C(=O)c2ccc(Br)cc2)c1OCC` [Compound 22, (E)-1–(4-bromophenyl)-3–(2,3-diethoxyphenyl)prop-2-en-1-one] the IC50 (human MAO-B) was 15.6 ± 0.803 µM, the melting point was 75 to 79 °C and the IC50 (human MAO-A) was greater than 100 µM.
With `COc1cc(Br)ccc1/C=C/C(=O)c1ccc(S(C)(=O)=O)cc1` [Compound 10, (E)-3–(4-bromo-2-methoxyphenyl)-1–(4-(methylsulfonyl)phenyl)prop-2-en-1-one] the Selectivity index (human MAO-B) was 150, the IC50 (human MAO-B) was 0.582 ± 0.03 µM and the melting point was 199 to 203 °C. For the same molecule, the IC50 (human MAO-A) was 87.3 ± 9.34 µM.
`O=C(/C=C/c1cccc2c1OCO2)c1ccc(Br)cc1` [Compound 5, (E)-3-(benzo[d][1,3]dioxol-4-yl)-1–(4-bromophenyl)prop-2-en-1-one] gave a Selectivity index (human MAO-B) of 67, an IC50 (human MAO-B) of 0.106 ± 0.012 µM and a melting point of 96 to 100 °C. The IC50 (human MAO-A) was 7.18 ± 0.755 µM.
`COc1cc(OC)c(/C=C/C(=O)c2ccc(Br)cc2)c(OC)c1` [Compound 18, (E)-1–(4-bromophenyl)-3–(2,4,6-trimethoxyphenyl)prop-2-en-1-one] gave a Selectivity index (human MAO-B) of less than 0.005, an IC50 (human MAO-B) greater than 100 µM and an IC50 (human MAO-A) of 0.56 ± 0.076 µM.
`O=C(/C=C/c1ccc(Br)cc1)c1ccc2c(c1)OCO2` [Compound 15, (E)-1-(benzo[d][1,3]dioxol-5-yl)-3–(4-bromophenyl)prop-2-en-1-one] showed a Selectivity index (human MAO-B) of 1.7, an IC50 (human MAO-B) of 0.102 ± 0.009 µM and a melting point of 150 to 153 °C. The IC50 (human MAO-A) was 0.173 ± 0.003 µM.
`CN(C)c1ccc(/C=C/C(=O)c2cccc(C(F)(F)F)c2)cc1` [Compound 1, (E)-3–(4-(dimethylamino)phenyl)-1–(3-(trifluoromethyl)phenyl)prop-2-en-1-one] showed a Selectivity index (human MAO-B) of 116, an IC50 (human MAO-B) of 0.123 ± 0.003 µM and an IC50 (human MAO-A) of 14.3 ± 1.81 µM.
`O=C(/C=C/c1cccc2c1OCO2)c1ccc(Cl)cc1` [Compound 6, (E)-3-(benzo[d][1,3]dioxol-4-yl)-1–(4-chlorophenyl)prop-2-en-1-one] gave a Selectivity index (human MAO-B) of 130, an IC50 (human MAO-B) of 0.139 ± 0.019 µM and a melting point of 83 to 87 °C. The IC50 (human MAO-A) was 18.1 ± 3.49 µM.
With `CN(C)c1ccc(/C=C/C(=O)c2ccc(C(F)(F)F)cc2)cc1` [Compound 2, (E)-3–(4-(dimethylamino)phenyl)-1–(4-(trifluoromethyl)phenyl)prop-2-en-1-one] the Selectivity index (human MAO-B) was greater than 260, the IC50 (human MAO-B) was 0.383 ± 0.061 µM and the IC50 (human MAO-A) was greater than 100 µM.
Molecule `COc1ccccc1/C=C/C(=O)c1ccc(Br)cc1` [Compound 20, (E)-1–(4-bromophenyl)-3–(2-methoxyphenyl)prop-2-en-1-one] has a Selectivity index (human MAO-B) of 5.8, an IC50 (human MAO-B) of 0.999 ± 0.276 µM and a melting point of 73 to 77 °C. The IC50 (human MAO-A) was 5.81 ± 0.878 µM.
`O=C(/C=C/c1cccc2c1OCO2)c1cccc(Cl)c1` [Compound 8, (E)-3-(benzo[d][1,3]dioxol-4-yl)-1–(3-chlorophenyl)prop-2-en-1-one] showed a Selectivity index (human MAO-B) greater than 1720, an IC50 (human MAO-B) of 0.058 ± 0.009 µM and a melting point of 79 to 83 °C. For the same molecule, the IC50 (human MAO-A) was greater than 100 µM.
Work on `O=C(/C=C/c1ccc([N+](=O)[O-])cc1)c1ccc(Cl)cc1` [Compound 13, (E)-1–(4-chlorophenyl)-3–(4-nitrophenyl)prop-2-en-1-one] yielded an IC50 (human MAO-B) of 0.034 ± 0.006 µM, a melting point of 162 to 166 °C and an IC50 (human MAO-A) of 45.5 ± 2.93 µM.
`CS(=O)(=O)c1ccc(C(=O)/C=C/c2ccc(Br)cc2)cc1` [Compound 9, (E)-3–(4-bromophenyl)-1–(4-(methylsulfonyl)phenyl)prop-2-en-1-one] gave a Selectivity index (human MAO-B) greater than 240, an IC50 (human MAO-B) of 0.404 ± 0.064 µM and a melting point of 206 to 210 °C. It also gave an IC50 (human MAO-A) greater than 100 µM.
